The assay relates to S. aureus. In words: LIVE/DEAD assay of bacterial membrane integrity. Format: cell-based, Staphylococcus aureus. Conditions: SYTO 9 / propidium iodide stain. An excerpt: Assessing the antibacterial activity of GL13K-loaded MSNs against Staphylococcus aureus (USA300, MRSA strain). Overnight culture of S. aureus, USA300 prepared in tryptic soy broth (TSB, DF0370-17-3, Fisher Scientific) were used for assessing the antibacterial activity of AMP-loaded MSNs. USA300 is one of the primary causatives of implant associated infection and implant failure. The optical density of the overnight culture was adjusted to 0.05 and treated with different concentrations of AMP-loaded MSN and AMP alone and MSN (without AMP) and PBS (vehicle control) was used as positive and negative controls. The bacteria was cultured for 24 h under different conditions and metabolic activity tested using BacTiter-Glo™ microbial cell viability assay. The assay was performed using manufacturer's instruction and metabolic activity was measured by luminescence which was measured using microplate reader (Synergy HT, Biotek). […] FIGS. 7A-7C show metabolic activity of USA300 cultured in presence of AMP-loaded MSNs, MSN alone and AMP added directly to the bacterial suspension. Values on x-axis correspond to the loaded AMP concentration.
Overnight culture of S. aureus was treated the same was using method discussed for FIGS. 7A-7C. A LIVE/DEAD assay was performed to visualize cell colonization of surfaces and membrane integrity of all experimental groups. […]

1 substance from patent publication US20220105234A1, “ADHESIVE FOR OSSEOINTEGRATED PERCUTANEOUS DEVICES” (Regents of the University of Minnesota, priority 2020, published 2022) can be followed below.

Where no end group is shown, it is not given here. [ ]: non-standard residue; d: D form.

For the substance “D-GL13K (G[dK][dI][dI][dK][dL][dK][dA][dS][dL][dK][dL][dL]) [AMP]”, the “membrane-compromised bacteria (antibacterial capability)” value is given as “significant membrane-compromised bacteria”.
